In patent publication US4156777A, “Process for producing glucopyranose-nitrosourea compounds and novel compounds included therein” (Tokyo Tanabe Company, Limited, priority 1977, dated 1979):
≈ marks a conversion by molar mass, not a printed value.

Experiments:
[1] = Solubility in water at 25° C.; format: physicochemical; details: amount soluble in 1 ml water at 25° C.
leukemia L-1210 = experiment: Antitumor activity against leukemia L-1210 implanted in BDF1 mice (ILS, 60 days survivors); format: in vivo
From the text: Test compounds were given to BDF1 mice 24 hrs after implantation of 10^6 cells of leukemia L-1210 in each animal, through single intraperitoneal administration, intraperitoneal administration for 5 successive days, single oral administration or oral administration for 5 successive days, whereupon the increase in life span (referred to as "ILS") and number of 60 days survivors of test animals were estimated, said test of antitumor activity being that according to the method of the National Cancer Center, Tokyo [A. Hoshi et al: Farmashia, 9 (1973), 464]. In the tests, the compounds were dissolved in physiological saline solution just before administration.
^a i.p.: intraperitoneal administration p.o: oral administration
D1 : single administration D1~5 : administration for 5
^b percentage calculated from mean survival time over control
^c survivors/six animals

[2] = Diabetogenic activity (blood glucose concentration after intravenous administration); format: in vivo, male Wister rats
Description: 40-96 mg/kg of the test compounds were administered intravenously to starved male Wister rats weighing 240-260 g each, and the blood glucose concentrations of the test animals were estimated by the glucose exidase method [L. L. Saloman et al: Anal. Chem., 31 (1959), 453], in which test the compounds were dissolved in physiological saline solution just before administration. […]

Acute toxicity (LD50) = format: in vivo, male Wister rats; details: rat, in vivo, after 1 week
Description: Test compounds were dissolved in physiological saline solution just before their dosage and administered to male Wister rats, intraperitoneally, intravenously and orally. After 1 week, the LD50 of each compound was calculated from the mortality of the test animals by the Lichfield-Wilcoxon Method.
i.v.: intravenous administration

[3] = Effect on respiration, blood pressure, heart rate and electrocardiogram; format: in vivo, Beagle dogs; details: dog, in vivo, iv; injected into brachial veins, anesthetized Beagle dogs; read-out: maximum dosage not effected on respiration, blood pressure, heart rate and electrocardiogram
Description: Beagle dogs of both sexes weighing about 10 kg were anesthetized with pentobarbital sodium (30 mg/kg, i.v.), and immobilized in the supine position. Test compounds dissolved in physiological saline solution were injected into the brachial veins of the animals and the arteries at cannulated positions were treated with heparin sodium as anticoagulant.
The respiration rate of each animal was estimated with a respirometer (Nihonkohden, RP-3) through a tracheal cannula, the blood pressure with an electro-haemodynamometer (Nihonkohden, MP-4T) attached surgically to the femoral artery, and the heart rate with a pulse-rate tachometer (Nihonkohden, RT-2) through the trigger pulse of the blood pressure.

[4] = known compounds, generally seen; cited from earlier work

SMILES: CO[C@H]1O[C@H](CO)[C@@H](O)[C@H](O)[C@H]1NC(=O)N(CCCl)N=O [Example 2MCαG, 1-(2-chloroethyl)-3-(methyl α-D-glucopyranos-2-yl)-1-nitrosourea]
- solubility [1]: 45 mg/mL (≈ 137 mM)
- ILS (leukemia L-1210; 0.5 mg/kg/day, i.p. D1~5): 15%
- ILS (leukemia L-1210; 1.0 mg/kg/day, i.p. D1~5): 48%
- ILS (leukemia L-1210; 2.0 mg/kg/day, i.p. D1~5): > 249%
- Survivors (60 days) (leukemia L-1210; 2.0 mg/kg/day, i.p. D1~5): 1/6
- ILS (leukemia L-1210; 2.0 mg/kg/day, p.o. D1~5): > 143%
- Survivors (60 days) (leukemia L-1210; 2.0 mg/kg/day, p.o. D1~5): 1/6
- ILS (leukemia L-1210; 3.2 mg/kg/day, i.p. D1~5): > 394%
- Survivors (60 days) (leukemia L-1210; 3.2 mg/kg/day, i.p. D1~5): 3/6
- ILS (leukemia L-1210; 3.2 mg/kg/day, p.o. D1~5): > 246%
- Survivors (60 days) (leukemia L-1210; 3.2 mg/kg/day, p.o. D1~5): 2/6
- ILS (leukemia L-1210; 4.0 mg/kg/day, i.p. D1~5): > 349%
- Survivors (60 days) (leukemia L-1210; 4.0 mg/kg/day, i.p. D1~5): 2/6
- ILS (leukemia L-1210; 6.3 mg/kg/day, i.p. D1): > 128%
- ILS (leukemia L-1210; 6.3 mg/kg/day, i.p. D1~5): > 198%
- Survivors (60 days) (leukemia L-1210; 6.3 mg/kg/day, i.p. D1~5): 1/6
- ILS (leukemia L-1210; 6.3 mg/kg/day, p.o. D1~5): > 380%
- Survivors (60 days) (leukemia L-1210; 6.3 mg/kg/day, p.o. D1~5): 3/6
- ILS (leukemia L-1210; 8.0 mg/kg/day, i.p. D1): > 432%
- Survivors (60 days) (leukemia L-1210; 8.0 mg/kg/day, i.p. D1): 3/6
- ILS (leukemia L-1210; 10.0 mg/kg/day, i.p. D1): > 717%
- Survivors (60 days) (leukemia L-1210; 10.0 mg/kg/day, i.p. D1): 6/6
- ILS (leukemia L-1210; 10.0 mg/kg/day, i.p. D1~5): > 190%
- Survivors (60 days) (leukemia L-1210; 10.0 mg/kg/day, i.p. D1~5): 1/6
- ILS (leukemia L-1210; 12.5 mg/kg/day, i.p. D1~5): > 160%
- Survivors (60 days) (leukemia L-1210; 12.5 mg/kg/day, i.p. D1~5): 1.6 survivors/six animals
- ILS (leukemia L-1210; 12.5 mg/kg/day, p.o. D1~5): > 211%
- Survivors (60 days) (leukemia L-1210; 12.5 mg/kg/day, p.o. D1~5): 2/6
- ILS (leukemia L-1210; 20.0 mg/kg/day, i.p. D1): > 717%
- Survivors (60 days) (leukemia L-1210; 20.0 mg/kg/day, i.p. D1): 6/6
- ILS (leukemia L-1210; 20.0 mg/kg/day, i.p. D1~5): 58%
- ILS (leukemia L-1210; 25.0 mg/kg/day, i.p. D1): > 539%
- Survivors (60 days) (leukemia L-1210; 25.0 mg/kg/day, i.p. D1): 4/6
- Blood Glucose Concentration ([2]; 40 mg/kg i.v., 0 hr after treatment): 71.0 mg/dL
- Blood Glucose Concentration ([2]; 40 mg/kg i.v., 2 hr after treatment): 73.5 mg/dL
- Blood Glucose Concentration ([2]; 40 mg/kg i.v., 4 hr after treatment): 70.6 mg/dL
- Blood Glucose Concentration ([2]; 40 mg/kg i.v., 7 hr after treatment): 72.3 mg/dL
- Blood Glucose Concentration ([2]; 40 mg/kg i.v., 10 hr after treatment): 68.3 mg/dL
- Blood Glucose Concentration ([2]; 40 mg/kg i.v., 24 hr after treatment): 72.7 mg/dL
- Blood Glucose Concentration ([2]; 40 mg/kg i.v., 48 hr after treatment): 70.4 mg/dL
- Blood Glucose Concentration ([2]; 60 mg/kg i.v., 0 hr after treatment): 70.4 mg/dL
- Blood Glucose Concentration ([2]; 60 mg/kg i.v., 2 hr after treatment): 74.2 mg/dL
- Blood Glucose Concentration ([2]; 60 mg/kg i.v., 4 hr after treatment): 68.2 mg/dL
- Blood Glucose Concentration ([2]; 60 mg/kg i.v., 7 hr after treatment): 68.7 mg/dL
- Blood Glucose Concentration ([2]; 60 mg/kg i.v., 10 hr after treatment): 67.5 mg/dL
- Blood Glucose Concentration ([2]; 60 mg/kg i.v., 24 hr after treatment): 73.8 mg/dL
- Blood Glucose Concentration ([2]; 60 mg/kg i.v., 48 hr after treatment): 70.8 mg/dL
- blood glucose concentrations versus control, in words ([2]; i.v., rats): substantially the same blood glucose concentrations as that in the control
- LD50 at 168 h (Acute toxicity (LD50); ip): 48 mg/kg
- LD50 at 168 h (Acute toxicity (LD50); po): 49 mg/kg
- NOAEL [3]: 30 mg/kg
- diabetogenic activity, decreasing order [4]: SZ>DCNU>GANU> 2MCαG≈6MCαG
